Measurements reported in ChEMBL document CHEMBL5058649, “Data for DCP probe BAY 1816032” (2022).

Assays:
[1] = molecular target: 5-hydroxytryptamine receptor 1D (Homo sapiens, UniProt P28221); details: Compound concentration 10.0 uM
[2] = molecular target: 1-phosphatidylinositol 3-phosphate 5-kinase (Homo sapiens) (UniProt Q9Y2I7); test: PIKFYVE DiscoveRx kinase panel; details: Compound concentration 1.0 uM
[3] = molecular target: Alpha-1D adrenergic receptor (Homo sapiens, UniProt P25100); test: GPCRScan assay: inhibition of Alpha1D; set-up: radioligand conc. used [nm] 0.3 – 1.0, parental cells stable
Sequence of Alpha-1D adrenergic receptor (P25100 whole entry): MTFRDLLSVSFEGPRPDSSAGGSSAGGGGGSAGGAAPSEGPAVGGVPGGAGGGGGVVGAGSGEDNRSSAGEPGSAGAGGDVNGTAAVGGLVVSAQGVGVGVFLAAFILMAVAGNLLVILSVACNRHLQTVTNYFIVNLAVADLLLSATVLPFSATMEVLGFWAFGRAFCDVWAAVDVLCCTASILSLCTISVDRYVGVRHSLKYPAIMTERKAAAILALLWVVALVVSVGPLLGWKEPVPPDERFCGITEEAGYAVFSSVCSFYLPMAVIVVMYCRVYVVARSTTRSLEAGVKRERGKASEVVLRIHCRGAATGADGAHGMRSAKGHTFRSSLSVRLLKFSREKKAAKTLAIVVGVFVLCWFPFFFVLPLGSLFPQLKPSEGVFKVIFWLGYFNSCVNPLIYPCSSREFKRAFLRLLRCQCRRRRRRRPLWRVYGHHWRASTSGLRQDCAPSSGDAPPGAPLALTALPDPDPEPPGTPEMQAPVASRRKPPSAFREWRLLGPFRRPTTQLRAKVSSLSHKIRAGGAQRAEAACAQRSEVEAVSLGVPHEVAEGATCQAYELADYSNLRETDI

[4] = molecular target: Adenosine Transporter (Cavia porcellus) (UniProt H0V4R7+H0UUG1+H0V3Z5); test: Inhibition of Transporter, Adenosine at compound concentration of 10.0 uM in the Eurofins-Panlabs radioligand binding assay (Eurofins_assay_202000); assay type: protein assay; set-up: ligand concentration 0.5 nM, non-specific ligand with concentration 5 uM Nitrobenzylthioinosine, incubation time 30 min, incubation temperature 25 C; details: Compound concentration 10.0 uM
[5] = molecular target: Tyrosine-protein kinase JAK1 (Homo sapiens) (UniProt P23458); test: JAK1(JH1domain-catalytic) DiscoveRx kinase panel; details: Compound concentration 1.0 uM
[6] = molecular target: Mitogen-activated protein kinase kinase kinase kinase 2 (Homo sapiens) (UniProt Q12851); test: MAP4K2 DiscoveRx kinase panel; details: Compound concentration 1.0 uM
[7] = molecular target: Tyrosine-protein kinase receptor UFO (Homo sapiens) (UniProt P30530); test: AXL DiscoveRx kinase panel; details: Compound concentration 1.0 uM
[8] = molecular target: Serine/threonine-protein kinase TAO2 (Homo sapiens) (UniProt Q9UL54); test: TAOK2 DiscoveRx kinase panel; details: Compound concentration 1.0 uM
[9] = molecular target: Mitogen-activated protein kinase 1 (Homo sapiens) (UniProt P28482); test: ERK2 DiscoveRx kinase panel; details: Compound concentration 1.0 uM
[10] = molecular target: Tyrosine-protein kinase ITK/TSK (Homo sapiens) (UniProt Q08881); test: ITK DiscoveRx kinase panel; details: Compound concentration 1.0 uM
[11] = molecular target: Fibroblast growth factor receptor 2 (Homo sapiens) (UniProt P21802); test: FGFR2 DiscoveRx kinase panel; details: Compound concentration 1.0 uM
[12] = molecular target: Sodium-dependent dopamine transporter (Homo sapiens, UniProt Q01959); details: Compound concentration 10.0 uM
[13] = molecular target: Kappa-type opioid receptor (Homo sapiens) (UniProt P41145); details: Compound concentration 10.0 uM
[14] = molecular target: D(2) dopamine receptor (Homo sapiens) (UniProt P14416); details: Compound concentration 10.0 uM
[15] = molecular target: Ephrin type-B receptor 4 (Homo sapiens) (UniProt P54760); test: EPHB4 DiscoveRx kinase panel; details: Compound concentration 1.0 uM
Sequence of Ephrin type-B receptor 4 (Homo sapiens) (P54760 whole entry): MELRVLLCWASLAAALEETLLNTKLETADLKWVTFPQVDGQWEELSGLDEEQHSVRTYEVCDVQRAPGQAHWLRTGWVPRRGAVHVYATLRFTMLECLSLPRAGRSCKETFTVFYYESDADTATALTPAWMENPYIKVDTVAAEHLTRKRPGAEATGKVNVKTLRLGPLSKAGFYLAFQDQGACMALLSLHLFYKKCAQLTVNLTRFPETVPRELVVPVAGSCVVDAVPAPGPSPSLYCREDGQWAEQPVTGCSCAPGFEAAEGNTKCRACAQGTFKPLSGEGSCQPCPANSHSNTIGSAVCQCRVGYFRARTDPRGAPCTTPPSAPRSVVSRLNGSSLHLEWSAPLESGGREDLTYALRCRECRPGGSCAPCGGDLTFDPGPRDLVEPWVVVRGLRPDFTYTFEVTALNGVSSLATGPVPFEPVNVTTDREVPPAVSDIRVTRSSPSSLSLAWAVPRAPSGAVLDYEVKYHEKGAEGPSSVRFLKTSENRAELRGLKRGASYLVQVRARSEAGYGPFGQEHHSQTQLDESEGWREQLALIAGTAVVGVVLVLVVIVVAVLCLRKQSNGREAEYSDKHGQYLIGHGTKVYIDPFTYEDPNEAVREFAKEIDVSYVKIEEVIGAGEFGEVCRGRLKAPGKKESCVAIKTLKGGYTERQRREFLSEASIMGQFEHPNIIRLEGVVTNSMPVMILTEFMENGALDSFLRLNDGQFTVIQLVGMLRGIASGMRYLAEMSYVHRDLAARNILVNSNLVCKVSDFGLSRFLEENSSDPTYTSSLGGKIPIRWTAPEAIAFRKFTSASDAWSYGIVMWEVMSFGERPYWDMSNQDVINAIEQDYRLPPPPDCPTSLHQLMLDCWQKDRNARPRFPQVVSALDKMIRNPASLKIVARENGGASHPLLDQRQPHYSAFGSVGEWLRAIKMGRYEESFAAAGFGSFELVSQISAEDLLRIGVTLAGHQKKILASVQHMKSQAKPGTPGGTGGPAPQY

[16] = molecular target: Tyrosine-protein kinase Lyn (Homo sapiens) (UniProt P07948); test: LYN DiscoveRx kinase panel; details: Compound concentration 1.0 uM
[17] = molecular target: ATP-sensitive inward rectifier potassium channel 11 (Cricetulus griseus) (UniProt A0A3L7HHE1); test: Inhibition of Potassium Channel [KATP] at 10 µM in the Eurofins-Panlabs radioligand binding assay (Eurofins_assay_265600); details: Cricetinae; Compound concentration 10.0 uM
[18] = molecular target: Tyrosine-protein kinase CSK (Homo sapiens) (UniProt P41240); test: CSK DiscoveRx kinase panel; details: Compound concentration 1.0 uM
SK-BR-3 = test: SK-BR-3 cell line Proliferation assay; assay type: functional, Homo sapiens; details: time 4 day
[19] = molecular target: Ribosomal protein S6 kinase alpha-3 (Homo sapiens) (UniProt P51812); test: RSK2(Kin.Dom.1-N-terminal) DiscoveRx kinase panel; details: Compound concentration 1.0 uM
Sequence of Ribosomal protein S6 kinase alpha-3 (Homo sapiens) (P51812 whole entry): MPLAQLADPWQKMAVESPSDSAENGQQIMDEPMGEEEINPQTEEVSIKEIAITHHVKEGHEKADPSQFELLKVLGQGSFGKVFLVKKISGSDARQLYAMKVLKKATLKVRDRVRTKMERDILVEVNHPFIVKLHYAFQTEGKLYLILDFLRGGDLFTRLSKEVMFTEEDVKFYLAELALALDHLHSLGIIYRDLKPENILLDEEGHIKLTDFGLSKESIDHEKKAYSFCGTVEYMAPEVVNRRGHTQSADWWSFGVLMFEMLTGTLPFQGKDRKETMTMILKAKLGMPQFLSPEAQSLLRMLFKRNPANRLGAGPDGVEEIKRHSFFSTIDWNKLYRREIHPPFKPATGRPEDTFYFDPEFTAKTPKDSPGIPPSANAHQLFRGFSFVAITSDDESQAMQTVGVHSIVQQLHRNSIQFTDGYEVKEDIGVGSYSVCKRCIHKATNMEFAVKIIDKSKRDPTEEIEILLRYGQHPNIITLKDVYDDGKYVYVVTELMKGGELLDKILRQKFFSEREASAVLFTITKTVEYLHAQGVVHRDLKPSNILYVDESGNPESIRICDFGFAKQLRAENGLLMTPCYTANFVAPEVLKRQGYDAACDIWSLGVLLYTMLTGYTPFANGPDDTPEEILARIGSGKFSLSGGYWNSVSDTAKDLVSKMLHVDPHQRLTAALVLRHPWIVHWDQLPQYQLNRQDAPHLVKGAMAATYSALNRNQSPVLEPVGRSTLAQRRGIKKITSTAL

[20] = molecular target: Ribosomal protein S6 kinase alpha-5 (Homo sapiens) (UniProt O75582); test: RPS6KA5(Kin.Dom.1-N-terminal) DiscoveRx kinase panel; details: Compound concentration 1.0 uM
Sequence of Ribosomal protein S6 kinase alpha-5 (Homo sapiens) (O75582 whole entry, looked up): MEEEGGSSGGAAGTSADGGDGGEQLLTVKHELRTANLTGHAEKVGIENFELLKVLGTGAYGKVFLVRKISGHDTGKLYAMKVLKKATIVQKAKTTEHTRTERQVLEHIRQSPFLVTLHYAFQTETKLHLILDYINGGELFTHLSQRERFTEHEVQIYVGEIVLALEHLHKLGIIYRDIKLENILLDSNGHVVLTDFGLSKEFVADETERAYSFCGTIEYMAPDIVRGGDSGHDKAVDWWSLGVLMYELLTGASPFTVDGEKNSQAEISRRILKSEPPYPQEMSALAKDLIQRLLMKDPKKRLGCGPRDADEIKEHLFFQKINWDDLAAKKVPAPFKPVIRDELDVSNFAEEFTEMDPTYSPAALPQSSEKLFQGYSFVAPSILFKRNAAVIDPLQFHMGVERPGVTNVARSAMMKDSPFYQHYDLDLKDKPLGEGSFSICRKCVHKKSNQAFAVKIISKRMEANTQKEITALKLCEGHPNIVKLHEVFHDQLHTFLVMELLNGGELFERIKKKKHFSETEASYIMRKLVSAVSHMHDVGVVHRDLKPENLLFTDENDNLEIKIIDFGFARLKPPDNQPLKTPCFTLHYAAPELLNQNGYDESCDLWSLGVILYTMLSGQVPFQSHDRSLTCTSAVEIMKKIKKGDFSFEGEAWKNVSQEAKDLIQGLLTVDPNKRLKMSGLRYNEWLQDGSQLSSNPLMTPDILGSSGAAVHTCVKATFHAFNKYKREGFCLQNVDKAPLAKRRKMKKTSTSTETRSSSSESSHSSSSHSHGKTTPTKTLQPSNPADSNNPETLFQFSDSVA

[21] = molecular target: Histamine H1 receptor (Homo sapiens) (UniProt P35367); details: Compound concentration 10.0 uM
Sequence of Histamine H1 receptor (Homo sapiens) (P35367 whole entry): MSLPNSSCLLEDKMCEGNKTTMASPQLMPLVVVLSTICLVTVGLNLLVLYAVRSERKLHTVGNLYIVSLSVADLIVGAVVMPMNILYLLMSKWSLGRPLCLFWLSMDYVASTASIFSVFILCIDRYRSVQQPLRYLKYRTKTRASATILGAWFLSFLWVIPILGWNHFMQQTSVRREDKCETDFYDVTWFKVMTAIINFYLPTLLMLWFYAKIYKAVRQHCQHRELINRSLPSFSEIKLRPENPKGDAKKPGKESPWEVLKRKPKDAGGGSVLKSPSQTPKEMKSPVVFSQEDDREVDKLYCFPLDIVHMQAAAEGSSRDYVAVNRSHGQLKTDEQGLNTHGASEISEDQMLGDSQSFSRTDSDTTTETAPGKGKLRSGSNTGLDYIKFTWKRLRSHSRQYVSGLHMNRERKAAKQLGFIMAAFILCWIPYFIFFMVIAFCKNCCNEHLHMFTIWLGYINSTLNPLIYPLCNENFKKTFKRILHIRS

[22] = molecular target: B2 bradykinin receptor (Homo sapiens) (UniProt P30411); test: Bradykinin B2 Eurofins-Panlabs radioligand binding assay; details: Compound concentration 10.0 uM
[23] = molecular target: Platelet-activating factor receptor (Homo sapiens) (UniProt P25105); test: Inhibition of Platelet Activating Factor (PAF) at 10 µM in the Eurofins-Panlabs radioligand binding assay (Eurofins_assay_265010); details: Compound concentration 10.0 uM
Sequence of Platelet-activating factor receptor (Homo sapiens) (P25105 whole entry): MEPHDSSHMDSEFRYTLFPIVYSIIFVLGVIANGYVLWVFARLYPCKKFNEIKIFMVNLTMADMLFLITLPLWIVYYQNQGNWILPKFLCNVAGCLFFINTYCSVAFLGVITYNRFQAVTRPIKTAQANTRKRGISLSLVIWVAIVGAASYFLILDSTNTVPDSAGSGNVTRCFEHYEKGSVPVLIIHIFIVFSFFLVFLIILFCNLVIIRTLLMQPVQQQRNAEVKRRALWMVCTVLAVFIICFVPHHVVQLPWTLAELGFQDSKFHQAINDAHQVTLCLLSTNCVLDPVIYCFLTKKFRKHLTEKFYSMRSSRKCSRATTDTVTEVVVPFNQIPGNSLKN

[24] = molecular target: Tyrosine-protein kinase Lck (Homo sapiens) (UniProt P06239); test: Inhibition of Protein Tyrosine Kinase, LCK at 10 µM in the Eurofins-Panlabs enzyme assay (Eurofins_assay_176020); details: Compound concentration 10.0 uM
[25] = molecular target: Alpha-2C adrenergic receptor (Homo sapiens, UniProt P18825); test: GPCRScan assay: inhibition of Alpha2C; set-up: radioligand conc. used [nm] 0.5 – 1.0, parental cells stable MDCK
Sequence of Alpha-2C adrenergic receptor (P18825 whole entry): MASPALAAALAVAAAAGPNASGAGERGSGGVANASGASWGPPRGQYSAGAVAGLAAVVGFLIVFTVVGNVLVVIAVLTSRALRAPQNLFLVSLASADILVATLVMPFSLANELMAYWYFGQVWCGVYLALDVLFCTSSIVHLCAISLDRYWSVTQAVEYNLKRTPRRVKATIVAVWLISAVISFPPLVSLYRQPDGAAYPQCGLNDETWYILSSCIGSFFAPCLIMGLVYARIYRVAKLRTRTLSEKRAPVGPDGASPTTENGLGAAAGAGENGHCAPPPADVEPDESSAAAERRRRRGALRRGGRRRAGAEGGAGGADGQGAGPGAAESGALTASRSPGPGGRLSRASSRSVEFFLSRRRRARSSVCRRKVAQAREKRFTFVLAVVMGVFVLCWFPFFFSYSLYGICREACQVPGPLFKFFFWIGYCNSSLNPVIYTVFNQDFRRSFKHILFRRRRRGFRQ

[26] = molecular target: Mitogen-activated protein kinase kinase kinase 12 (Homo sapiens) (UniProt Q12852); test: DLK DiscoveRx kinase panel; details: Compound concentration 1.0 uM
[27] = molecular target: Phosphatidylinositol 4,5-bisphosphate 3-kinase catalytic subunit alpha isoform (Homo sapiens) (UniProt P42336); test: PIK3CA DiscoveRx kinase panel; details: Compound concentration 1.0 uM
[28] = molecular target: RAC-gamma serine/threonine-protein kinase (Homo sapiens) (UniProt Q9Y243); test: AKT3 DiscoveRx kinase panel; details: Compound concentration 1.0 uM
[29] = molecular target: MAP kinase-interacting serine/threonine-protein kinase 2 (Homo sapiens) (UniProt Q9HBH9); test: MKNK2 DiscoveRx kinase panel; details: Compound concentration 1.0 uM
[30] = molecular target: Histamine H4 receptor (Homo sapiens) (UniProt Q9H3N8); details: Compound concentration 10.0 uM
[31] = molecular target: Receptor tyrosine-protein kinase erbB-2 (Homo sapiens) (UniProt P04626); test: ERBB2 DiscoveRx kinase panel; details: Compound concentration 1.0 uM
[32] = molecular target: STE20-like serine/threonine-protein kinase (Homo sapiens) (UniProt Q9H2G2); test: SLK DiscoveRx kinase panel; details: Compound concentration 1.0 uM
[33] = molecular target: Casein kinase I isoform gamma-1 (Homo sapiens) (UniProt Q9HCP0); test: CSNK1G1 DiscoveRx kinase panel; details: Compound concentration 1.0 uM
[34] = molecular target: Beta-1 adrenergic receptor (Homo sapiens) (UniProt P08588); details: Compound concentration 10.0 uM
[35] = molecular target: Dual specificity protein kinase CLK4 (Homo sapiens) (UniProt Q9HAZ1); test: CLK4 DiscoveRx kinase panel; details: Compound concentration 1.0 uM
[36] = molecular target: D(3) dopamine receptor (Homo sapiens) (UniProt P35462); details: Compound concentration 10.0 uM
Sequence of D(3) dopamine receptor (Homo sapiens) (P35462 whole entry): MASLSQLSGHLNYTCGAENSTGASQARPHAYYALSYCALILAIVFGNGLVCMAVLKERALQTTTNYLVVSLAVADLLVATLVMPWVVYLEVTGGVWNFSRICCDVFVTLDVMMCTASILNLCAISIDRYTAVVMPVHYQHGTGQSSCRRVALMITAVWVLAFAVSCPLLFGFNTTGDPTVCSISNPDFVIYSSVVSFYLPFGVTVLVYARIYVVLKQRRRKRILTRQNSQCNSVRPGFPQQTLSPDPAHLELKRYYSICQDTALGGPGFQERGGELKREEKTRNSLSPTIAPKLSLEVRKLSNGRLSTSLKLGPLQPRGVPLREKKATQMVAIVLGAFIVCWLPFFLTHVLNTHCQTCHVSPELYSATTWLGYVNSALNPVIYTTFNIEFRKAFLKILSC

[37] = molecular target: Sigma non-opioid intracellular receptor 1 (Homo sapiens, UniProt Q99720); details: Compound concentration 10.0 uM
Sequence of Sigma non-opioid intracellular receptor 1 (Q99720 whole entry): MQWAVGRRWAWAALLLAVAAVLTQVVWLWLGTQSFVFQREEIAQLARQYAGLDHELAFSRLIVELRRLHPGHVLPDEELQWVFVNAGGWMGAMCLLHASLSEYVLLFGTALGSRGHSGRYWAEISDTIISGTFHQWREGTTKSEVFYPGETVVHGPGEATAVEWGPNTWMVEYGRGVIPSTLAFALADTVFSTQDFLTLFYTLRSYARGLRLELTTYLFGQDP

[38] = molecular target: Histamine H1 receptor (Homo sapiens) (UniProt P35367); details: Compound concentration 10.0 uM; remark: listed apart in the source
[39] = molecular target: Maternal embryonic leucine zipper kinase (Homo sapiens) (UniProt Q14680); test: MELK DiscoveRx kinase panel; details: Compound concentration 1.0 uM
[40] = molecular target: Receptor tyrosine-protein kinase erbB-3 (Homo sapiens) (UniProt P21860); test: ERBB3 DiscoveRx kinase panel; details: Compound concentration 1.0 uM
[41] = molecular target: RAC-beta serine/threonine-protein kinase (Homo sapiens) (UniProt P31751); test: AKT2 DiscoveRx kinase panel; details: Compound concentration 1.0 uM
[42] = molecular target: Testis-specific serine/threonine-protein kinase 1 (Homo sapiens) (UniProt Q9BXA7); test: TSSK1B DiscoveRx kinase panel; details: Compound concentration 1.0 uM
[43] = molecular target: Ribosomal protein S6 kinase alpha-5 (Homo sapiens) (UniProt O75582); test: RPS6KA5(Kin.Dom.2-C-terminal) DiscoveRx kinase panel; details: Compound concentration 1.0 uM
[44] = molecular target: RAF proto-oncogene serine/threonine-protein kinase (Homo sapiens) (UniProt P04049); test: RAF1 DiscoveRx kinase panel; details: Compound concentration 1.0 uM
[45] = molecular target: Tyrosine-protein kinase receptor TYRO3 (Homo sapiens) (UniProt Q06418); test: TYRO3 DiscoveRx kinase panel; details: Compound concentration 1.0 uM

## COc1cnccc1Nc1nc(-c2nn(Cc3c(F)cc(OCCO)cc3F)c3ccccc23)ncc1OC
[1]
  inhibition: 9.3%
[2]
  residual activity: 88%
[3]
  Ki: > 10 µM
  pKi: < 5
[4]
  inhibition: 71%
[5]
  residual activity: 90%
[6]
  residual activity: 100%
[7]
  residual activity: 47%
[8]
  residual activity: 100%
[9]
  residual activity: 93%
[10]
  residual activity: 100%
[11]
  residual activity: 100%
[12]
  inhibition: -5%
[13]
  inhibition: 26%
[14]
  inhibition: 3.66%
[15]
  residual activity: 93%
[16]
  residual activity: 100%
[17]
  inhibition: 4%
[18]
  residual activity: 77%
SK-BR-3
  Cell Proliferation IC50: 1.1 µM
[19]
  residual activity: 100%
[20]
  residual activity: 100%
[21]
  inhibition: 12%
[22]
  inhibition: 0%
[23]
  inhibition: 28%
[24]
  inhibition: 6%
[25]
  Ki: > 10 µM
  pKi: < 5
[26]
  residual activity: 87%
[27]
  residual activity: 100%
[28]
  residual activity: 100%
[29]
  residual activity: 100%
[30]
  inhibition: 39.3%
[31]
  residual activity: 100%
[32]
  residual activity: 100%
[33]
  residual activity: 74%
[34]
  inhibition: 4%
[35]
  residual activity: 83%
[36]
  inhibition: 1.89%
[37]
  inhibition: 4.34%
[38]
  inhibition: 16.9%
[39]
  residual activity: 84%
[40]
  residual activity: 70%
[41]
  residual activity: 88%
[42]
  residual activity: 100%
[43]
  residual activity: 100%
[44]
  residual activity: 71%
[45]
  residual activity: 56%
